Test results: article PMC5111108, “An insecticide resistance-breaking mosquitocide targeting inward rectifier potassium channels in vectors of Zika virus and malaria” (Scientific Reports, 2016)

Legend:
mosquito Kir1 channels = tested on: mosquito Kir1 channels; design: method as in PMID 24959745; conditions: read-out: IC50 against mosquito Kir1 channels in vitro; cited from earlier work
mosquitoes = tested on: mosquitoes; design: method as in PMID 24959745; conditions: cited from earlier work
AnKir1 = molecular target: T1, AnKir1 (Anopheles gambiae, UniProt A0A075M2J8); experiment: Tl+ flux assay in T-REx-HEK293 cells expressing AnKir1; type: cell-based; conditions: Tl+ flux; for IC50: Tables S2/S3 and supplemental text, read-out: AnKir1 IC50
T1 sequence (A0A075M2J8 1-555): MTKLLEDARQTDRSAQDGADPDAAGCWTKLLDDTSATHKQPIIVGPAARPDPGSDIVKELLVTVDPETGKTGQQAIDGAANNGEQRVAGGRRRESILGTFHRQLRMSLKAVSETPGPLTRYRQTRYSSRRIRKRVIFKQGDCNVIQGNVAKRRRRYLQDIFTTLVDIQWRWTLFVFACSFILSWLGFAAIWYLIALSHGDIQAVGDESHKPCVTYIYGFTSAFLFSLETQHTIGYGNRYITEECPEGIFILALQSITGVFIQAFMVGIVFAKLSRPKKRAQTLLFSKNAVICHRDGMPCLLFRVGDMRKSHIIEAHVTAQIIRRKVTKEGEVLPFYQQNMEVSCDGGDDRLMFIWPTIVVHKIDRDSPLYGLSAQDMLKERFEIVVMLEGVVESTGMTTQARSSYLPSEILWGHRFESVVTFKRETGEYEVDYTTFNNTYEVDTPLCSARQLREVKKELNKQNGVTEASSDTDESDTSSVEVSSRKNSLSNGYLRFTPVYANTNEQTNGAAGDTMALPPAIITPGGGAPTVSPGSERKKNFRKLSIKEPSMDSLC
Experimental: Tl^+ flux assays were performed essentially as described previously. Briefly, stably transfected T-Rex-HEK-293 cells expressing AnKir1 channels were cultured overnight in 384-well plates (20,000 cells/20 μL/well black-walled, clear-bottomed BD PureCoat amine-coated plates (BD, Bedford, MA) with a plating media containing DMEM, 10% dialyzed FBS and 1 μg/mL tetracycline. Approximately twenty-four hours after cell plating, the cell culture medium was replaced with a dye-loading solution containing assay buffer (Hanks Balanced Salt Solution with 20 mM HEPES, pH 7.3), 0.01% (w/v) Pluronic F-127 (Life Technologies, Carlsbad, CA), and 1.2 μM of the thallium-sensitive dye Thallos-AM (TEFlabs, Austin, TX). Following 1 hr incubation at room temperature, the dye-loading solution was washed from the plates and replaced with 20 μL/well of assay buffer.
Tl+ flux assay development
Tl+ flux assays were performed essentiall y as described previousl y (1). Briefl y, stabl y transfect ed T-Rex -HEK- 293- AnKir1 cells were cultured overnight in 384-well plates in media containing DMEM, 10% dial yz ed FBS and 1μg/ m L tetrac ycline to induce channel expression
(Fig. S1A). The next day, the cell culture medium was replaced with a dye-loading solution containing assay buffer (Hanks Balanced Salt Solution with 20 mM HEPES, pH 7.3), 0.01% (w/v) Pluronic F-127 (Li fe Technologies, Carlsbad, CA), and 1.2 μM of the thallium-sensitive dye Thallos-AM (TEFl abs, Austin, TX). Following 1 hr incubation at room temperature, the d ye-loading solution was washed from the plates and replaced with 20 μ L/well of assa y buffer. The plates were transferred t o a Ham amatsu Functional Drug Screening System 6000 (FDSS6000; Hamamatsu, Tokyo, J apan) where 20 μ L/well of test compounds in assay buffer (as prepared below) were added and allowed to incubate with the cells for 20 min. After the incubation period, a baseline recordi ng was collected at 1 Hz for 10 s (excitation 470 ± 20 nm, emission 540 ± 30 nm) followed by a t hallium stimulus buffer addition (10 μL/well) and data collection for an additional 4 min. The Tl + stimulus buffer contains in (mM) 125 NaHCO3, 1.8 CaSO4, 1 MgSO4, 5 glucose, 12 Tl2SO4, 10 HEPES, pH 7.4. For Tl + flux assays on Kir2.x, Kir4.1 and Kir6.2/SUR1 ex pressing cells, the Tl+ stimulus buffer contained 1.8 mM Tl 2SO4. To ensure the small-molecule vehicle DMSO had no direct effect on An Ki r1-dependent Tl+ flux, the assa y’s tolerance to different doses of DMSO was evaluated (Fig. S1B). The robustness and reproducibility of the assay was determined by comparing Tl+ flux through tetracycline-induced and tetracycline-uninduced cells (Fig. S1C). The Z’ value was calculated as described previously (1 ), using the […]
Z’ = 1- (3SD p + 3SD n)/ |meanp + meann | where SD is standard deviation, p and n are control and uninduced flux values respectivel y.
To compare the effect of DMSO on An Kir1-mediated Tl+ flux, a one-way ANOVA was performed with a Tuke y’s multiple comparison test. Prism software (GraphPad Software) was used to generate CRC from Tl+ fl ux ..Half-inhibition concentration (IC50) values were calculated from fits using a four parameter logistic equation.
High-throughput screeni ng
The test compounds were transferred to daughter pol yprop ylene 384-well plates (G reiner Bio-One, Monroe, NC) using an Echo555 liquid handler (Labcyte, Sunnyvale, CA), and then diluted into assay buffer to generat e a 2X stock in 0.6% DMSO (0.3% final). For Tl+ flux assays on Kir6.2/SUR1 expressing cells, test compounds were diluted in assay buffer containing diazoxide (250 μM final) to induce channel activation. Concentration- response curves (CRCs) were gener ated b y screening compounds at 3-fold dilution series (1 nM - 30 μM).
Tl+ flux data were anal yzed as previousl y d escri bed (2, 3) using a combination of Excel (Microsoft Corp, Redmond, WA) with XLfit add-in (IDBS, Guildford, Surre y, UK), Ori ginPro […]

An. gambiae G3 strain = tested on: An. gambiae G3 strain; design: method as in PMID 26047119; conditions: topical, (95% confidence limits); cited from earlier work
An. gambiae Akron strain = conditions: topical, (95% confidence limits); cited from earlier work
honey bee, A. mellifera = experiment: Acute topical toxicity to adult honey bees; type: in vivo, Apis mellifera; conditions: bifenthrin positive control, 0.3 μg per bee (0.1 μg/bee) topical, 48 h
Experimental: Frames of late-stage honey bee (A. mellifera) pupae were taken from four colonies at The Ohio State University Honey Bee Lab in Wooster, OH and maintained in a dark humid incubator at 34 °C (Darwin Chambers Co., St. Louis, MO, model H024) until adult bees emerged. New adults were brushed from frames daily and placed in wooden screen cages (21 × 14 × 12 cm) provisioned with 1:1 (w/w) sucrose in water.
Acute toxicity experiments in adult bees were performed as follows. Twenty-four hours after emergence, adult honey bees in cages were anaesthetized with carbon dioxide, divided into groups of approximately 20 bees and placed in plastic-coated paper cups (177 cm^3; UNIQ Paper Yogurt Cup, Frozen Dessert Supplies, Gilbert, AZ) covered with cotton cheesecloth. […] As a positive control, some bees were treated with 3 μl of bifenthrin (0.1 μg/μl); negative controls consisted of bees treated with 3 μl of solvent. Applications were made using a 20 μl micropipette (Fisherbrand Finnpipette F2, Fisher Scientific, Pittsburgh, PA) with disposable plastic tips. After treatment, bees were returned to the paper cups and provided with sugar syrup in punctured 1.5 ml microcentrifuge tubes. […] Bees showing no movement on inspection at 48 h after treatment were scored as dead.

For `CCC(=O)N1c2ccc(S(=O)(=O)Nc3cccc(OC)c3)cc2CC1C` (stereo not drawn) [VU625], the IC50 (mosquito Kir1 channels) is listed as roughly 0.1 µM and the “topical toxicity to mosquitoes” value (mosquitoes) is listed as “not topically toxic to mosquitoes”.

For `O=C(CN1CCCc2ccccc21)N1CCCc2ccccc21` [Compound 6], the IC50 (AnKir1) was 8 µM.

With `O=C(Cn1nc(C(F)(F)F)c2c1CCCC2)N1CCOc2ccccc21` [Compound 14] the IC50 (AnKir1) was 4.6 µM.

In the case of `CC1(C)C(C=C(Cl)Cl)C1C(=O)OCc1cccc(Oc2ccccc2)c1` (stereo not drawn) [Permethrin], the “ED50, G3 Strain” value (An. gambiae G3 strain) is given as 0.03e-5 (0.02e-5–0.05e-5) μg/mg and the “ED50, Akron Strain” value (An. gambiae Akron strain) is given as 1.0e-3 (0.8e-4–1.3e-3) μg/mg.

For `Cc1c(COC(=O)[C@@H]2[C@H](/C=C(\Cl)C(F)(F)F)C2(C)C)cccc1-c1ccccc1` (racemic) [bifenthrin, reference compound], the “honey bees dead (mortality)” value (honey bee, A. mellifera) was 100%.

With `O=C(Cn1nc(C(F)(F)F)c2c1CCCC2)N1CCc2ccccc2C1` [Compound 8] the “loss of potency vs VU041 (AnKir1)” value (AnKir1) was ~ 7 fold and the IC50 (AnKir1) was 15 µM.
